Assay results from patent US6545026B1, “Substituted benzylthiazolidine-2,4-dione derivatives” (Kyorin Pharmaceutical Co., Ltd., priority 1999, dated 2003).
Like-named read-outs stand apart in the source and are kept apart here.

Experiments:
[1] = target: T1, fused protein of DNA-binding domain of yeast transcription factor with ligand-binding domain of human type PPAR γ (Homo sapiens, UniProt P37231); assay: Test of transactivation on peroxisome proliferator-activated receptor γ (CHO cells, reporter assay)
T1 sequence (P37231 238-503 limits assumed): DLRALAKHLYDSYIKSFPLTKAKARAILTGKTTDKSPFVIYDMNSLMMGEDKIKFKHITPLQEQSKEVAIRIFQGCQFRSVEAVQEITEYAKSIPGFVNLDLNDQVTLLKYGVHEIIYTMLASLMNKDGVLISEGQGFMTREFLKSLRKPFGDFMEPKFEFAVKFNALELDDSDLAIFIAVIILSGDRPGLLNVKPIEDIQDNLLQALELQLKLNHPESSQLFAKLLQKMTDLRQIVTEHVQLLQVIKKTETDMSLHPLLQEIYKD
Procedure: (§1) Test of transactivation on peroxisome proliferator-activated receptors α and γ
(§2) After 24 hours, CAT activity and γ-galactosidase activity were measured.

[2] = target: T2, fused protein of DNA-binding domain of yeast transcription factor with ligand-binding domain of human type PPAR α (Homo sapiens, UniProt Q07869); assay: Test of transactivation on peroxisome proliferator-activated receptor α (CHO cells, reporter assay)
T2 sequence (Q07869 239-466 limits assumed): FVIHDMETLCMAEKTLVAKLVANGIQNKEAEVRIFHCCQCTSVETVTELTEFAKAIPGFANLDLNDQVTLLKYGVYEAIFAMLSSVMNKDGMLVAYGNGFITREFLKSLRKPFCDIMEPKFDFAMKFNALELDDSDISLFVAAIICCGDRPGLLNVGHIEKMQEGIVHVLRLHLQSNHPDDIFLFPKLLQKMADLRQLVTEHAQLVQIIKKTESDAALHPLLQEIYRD
Procedure: as §1, §2

| Structure (SMILES) | EC50 [1] [nM] | EC50 [2] [nM] | EC50 ([2]; read-out: Transactivation PPARα EC50, CHO cells, cotransfected receptor and reporter plasmid, 24 hours, CAT activity) [nM] |
| --- | --- | --- | --- |
| CCCCC/C=C\C/C=C\C=C\[C@@H](O)C/C=C\CCCC(=O)O [(8S)-HETE, reference compound] |  |  | 1300 |
| COc1ccc(CC2SC(=O)NC2=O)cc1C(=O)NCc1ccccn1 (stereo not drawn) [Example 1, N-[(2-Pyridyl)methyl]-5-[(2,4-dioxothiazolidin-5-yl)methyl]-2-methoxybenzamide] | 300 | 353 |  |
| COc1ccc(CC2SC(=O)NC2=O)cc1C(=O)NCC1CCCCC1 (stereo not drawn) [Example 4, N-(Cyclohexylmethyl)-5-[(2,4-dioxothiazolidin-5-yl)methyl]-2-methoxybenzamide] | 230 | 300 |  |

Continued, values first:

| EC50 [1] [nM] | EC50 [2] [nM] | EC50 ([2]; read-out: Transactivation PPARα EC50, CHO cells, cotransfected receptor and reporter plasmid, 24 hours, CAT activity) [nM] | Structure (SMILES) |
| --- | --- | --- | --- |
| 960 | 420 |  | COc1ccc(CC2SC(=O)NC2=O)cc1C(=O)NCc1cccnc1 (stereo not drawn) [Example 2, N-[(3-Pyridyl)methyl]-5-[(2,4-dioxothiazolidin-5-yl)methyl]-2-methoxybenzamide] |
| 140 | 235 |  | COc1ccc(CC2SC(=O)NC2=O)cc1C(=O)NCc1ccncc1 (stereo not drawn) [Example 3, N-[(4-Pyridyl)methyl]-5-[(2,4-dioxothiazolidin-5-yl)methyl]-2-methoxybenzamide] |
